Tested on: strains of Enterobacteriaceae producing various carbapenemases (class A, D and B; 104 strains)
Assay: Antibiotics potentiation by Compound 27 (MIC; meropenem, doripenem, ertapenem, cefepime)
Assay type: cell-based
Details: + 27 = with Compound 27 at fixed 4 μg/ml

## COc1ccc2c(c1C(=O)O)OB(O)C(Sc1nnc(N)s1)C2 (stereo not shown) [C + 27]
Strain KP1081 Klebsiella pneumoniae (NDM-1, TEM-1, SHV-11, CMY-6, CTX-M-15)
  MIC: Y (MIC of 1 μg/mL to 10 μg/mL)
Strain KP1082 Klebsiella pneumoniae (KPC-2, SHV-1)
  MIC: X (MIC of less than 1 μg/mL)
Strain KP1083 Klebsiella pneumoniae (KPC-3, SHV-1, TEM-1)
  MIC: X (MIC of less than 1 μg/mL)
Strain KP1084 Klebsiella pneumoniae (KPC-3, SHV-11, TEM-1)
  MIC: Y (MIC of 1 μg/mL to 10 μg/mL)
Strain KP1086 Klebsiella pneumoniae (OXA-48, CTX-M-15, TEM, SHV)
  MIC: Z (MIC of greater than 10 μg/mL)
Strain KP1087 Klebsiella pneumoniae (KPC-2, CTX-M-15, SHV-11, TEM-1)
  MIC: Y (MIC of 1 μg/mL to 10 μg/mL)
Strain KP1088 Klebsiella pneumoniae (KPC-3, SHV-11, TEM-1)
  MIC: X (MIC of less than 1 μg/mL)
Strain KP1089 Klebsiella pneumonias (OXA-181, CTX-M-15, TEM, SHV)
  MIC: Y (MIC of 1 μg/mL to 10 μg/mL)
Strain KP1095 Klebsiella pneumoniae (KPC-2 TEM-1 SHV-1)
  MIC: X (MIC of less than 1 μg/mL)
Strain KP1096 Klebsiella pneumoniae (KPC-2 TEM-181 SHV-11)
  MIC: X (MIC of less than 1 μg/mL)
Strain KP1097 Klebsiella pneumonias (IMP-1)
  MIC: X (MIC of less than 1 μg/mL)
Strain KP1098 Klebsiella pneumoniae (IMP-26)
  MIC: Y (MIC of 1 μg/mL to 10 μg/mL)
Strain KP1104 Klebsiella pneumoniae (KPC TEM)
  MIC: X (MIC of less than 1 μg/mL)
Strain KP1105 Klebsiella pneumoniae (KPC TEM SHV)
  MIC: X (MIC of less than 1 μg/mL)
Strain KP1159 Klebsiella pneumoniae (SHV-1(2b); CTX-M-15; IMP-4)
  MIC: X (MIC of less than 1 μg/mL)
Strain KP1160 Klebsiella pneumoniae (SHV-28(2be); CTX-M-15; IMP-26)
  MIC: X (MIC of less than 1 μg/mL)
Strain KP1161 Klebsiella pneumoniae (NDM-1)
  MIC: X (MIC of less than 1 μg/mL)
Strain KP1164 Klebsiella pneumoniae (SHV-12(2be); VIM-1)
  MIC: X (MIC of less than 1 μg/mL)
Strain KP1165 Klebsiella pneumoniae (SHV-11(2b); CTX-M-15; VIM-27)
  MIC: Z (MIC of greater than 10 μg/mL)
Strain KP1166 Klebsiella pneumoniae (SHV-5(2be); VIM-26)
  MIC: Z (MIC of greater than 10 μg/mL)
Strain KP1167 Klebsiella pneumoniae (SHV-12(2be); VIM-1)
  MIC: X (MIC of less than 1 μg/mL)
Strain KP1169 Klebsiella pneumoniae (SHV-11(2b); VIM-1)
  MIC: X (MIC of less than 1 μg/mL)
Strain KP1170 Klebsiella pneumoniae (SHV-11(2b); CTX-M-15; NDM-1)
  MIC: X (MIC of less than 1 μg/mL)
Strain KP1172 Klebsiella pneumoniae (SHV-31(2be); DHA-1; VIM-1)
  MIC: X (MIC of less than 1 μg/mL)
Strain KP1173 Klebsiella pneumoniae (TEM-33(2br); CTX-M-15; IMP-1)
  MIC: X (MIC of less than 1 μg/mL)
Strain KP1174 Klebsiella pneumoniae (CTX-M-14; IMP-1)
  MIC: X (MIC of less than 1 μg/mL)
Strain KP1175 Klebsiella pneumoniae (SHV-OSBL(2b); VIM-1)
  MIC: X (MIC of less than 1 μg/mL)
Strain KP1177 Klebsiella pneumoniae (SHV-OSBL(2b), TEM-OSBL(2b); CTX-M-15; NDM-1)
  MIC: X (MIC of less than 1 μg/mL)
Strain KP1178 Klebsiella pneumoniae (SHV-OSBL(2b;) TEM-OSBL(2b); CTX-M-15; NDM-1)
  MIC: X (MIC of less than 1 μg/mL)
Strain KP1179 Klebsiella pneumoniae (SHV-12(2be), TEM-OSBL(2b); CTX-M-15; NDM-7)
  MIC: X (MIC of less than 1 μg/mL)
Strain KP1180 Klebsiella pneumoniae (SHV-OSBL(2b), TEM-OSBL(2b); CTX-M-15; DHA-1; IMP-26)
  MIC: X (MIC of less than 1 μg/mL)
Strain KP1181 Klebsiella pneumoniae (SHV-OSBL(2b); CTX-M-15; IMP-26)
  MIC: X (MIC of less than 1 μg/mL)
Strain KP1183 Klebsiella pneumoniae (SHV-OSBL(2b), TEM-OSBL(2b); CTX-M-15; NDM-1)
  MIC: X (MIC of less than 1 μg/mL)
Strain KP1184 Klebsiella pneumoniae (SHV-OSBL(2b); IMP-1)
  MIC: X (MIC of less than 1 μg/mL)
Strain KP1185 Klebsiella pneumoniae (SHV-OSBL(2b), TEM-OSBL(2b); IMP-4)
  MIC: Y (MIC of 1 μg/mL to 10 μg/mL)
Strain KP1186 Klebsiella pneumoniae (CTX-M-15; NDM-1)
  MIC: Y (MIC of 1 μg/mL to 10 μg/mL)
Strain KP1187 Klebsiella pneumoniae (SHV-55(2be), TEM-OSBL(2b); CTX-M-15; NDM-1)
  MIC: X (MIC of less than 1 μg/mL)
Strain KP1188 Klebsiella pneumoniae (SHV-OSBL(2b); CTX-M-15; NDM-1)
  MIC: Y (MIC of 1 μg/mL to 10 μg/mL)
Strain KP1189 Klebsiella pneumoniae (TEM-OSBL(2b); CTX-M-15; CTX-M-27; NDM-1)
  MIC: X (MIC of less than 1 μg/mL)
Strain KPM1123 Klebsiella pneumoniae (KPC-2 TEM SHV)
  MIC: X (MIC of less than 1 μg/mL)
Strain KPM1202 Klebsiella pneumoniae (KPC SHV TEM)
  MIC: X (MIC of less than 1 μg/mL)
Strain KPM1203 Klebsiella pneumoniae (KPC SHV TEM)
  MIC: X (MIC of less than 1 μg/mL)
Strain KPM1344 Klebsiella pneumoniae (VIM-1)
  MIC: X (MIC of less than 1 μg/mL)
Strain KPM1345 Klebsiella pneumoniae (VIM-1 SHV)
  MIC: X (MIC of less than 1 μg/mL)
Strain KPM1347 Klebsiella pneumoniae (NDM-1 SHV CTX-M-15)
  MIC: X (MIC of less than 1 μg/mL)
Strain KX1017 Klebsiella oxytoca (KPC-2, OXA-2, SHV-30)
  MIC: X (MIC of less than 1 μg/mL)
Strain KX1018 Klebsiella oxytoca (KPC-2, SHV-40, OXY-1)
  MIC: X (MIC of less than 1 μg/mL)
Strain KX1019 Klebsiella oxytoca (KPC-2, OXA-2)
  MIC: X (MIC of less than 1 μg/mL)
Strain PM1024 Proteus mirabilis (TEM-1(2b); CMY-16; VIM-1)
  MIC: X (MIC of less than 1 μg/mL)
Strain PM1026 Proteus mirabilis (DHA-1; IMP-26)
  MIC: X (MIC of less than 1 μg/mL)
Strain PM1027 Proteus mirabilis (VIM-5)
  MIC: X (MIC of less than 1 μg/mL)
Strain SM1023 Serratia marcescens (VIM-4)
  MIC: Y (MIC of 1 μg/mL to 10 μg/mL)

From patent US10206937B2, “Boronic acid derivatives and therapeutic uses thereof” (Qpex Biopharma, Inc., priority 2014, dated 2019)
